For 30 compounds, IC50 results are on record in patent US20260226068A1, “IMIDAZOTRIAZINE IL-17A MODULATORS AND USES THEREOF” (DICE ALPHA, INC., priority 2023, published 2026).

One test concerns the target T1, IL-17A/A (Homo sapiens, UniProt Q16552).
T1 construct: purchased Genscript Z03228
T1 sequence (Q16552 24-155): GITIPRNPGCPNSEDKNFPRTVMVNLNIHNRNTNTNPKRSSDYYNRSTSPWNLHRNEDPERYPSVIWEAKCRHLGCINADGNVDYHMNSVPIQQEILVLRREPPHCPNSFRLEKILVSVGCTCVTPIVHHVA
Description: IL-17A/A HEK-Blue cell assay (SEAP reporter). In kind it is cell-based. The settings on record: HEK-Blue IL-17A reporter cells, IL17A/A 5 ng/mL, 20 hours, SEAP read at A630; read-out: HEK-Blue IL17AA (IC50 for IL-17A/A inhibition).

Another test concerns the target T2, IL-17A/F (Homo sapiens, UniProt Q16552+Q96PD4).
T2 construct: purchased R&D Systems
T2 sequence (Q16552 24-155): T1 sequence (Q16552 24-155)
T2 sequence (Q96PD4 31-163): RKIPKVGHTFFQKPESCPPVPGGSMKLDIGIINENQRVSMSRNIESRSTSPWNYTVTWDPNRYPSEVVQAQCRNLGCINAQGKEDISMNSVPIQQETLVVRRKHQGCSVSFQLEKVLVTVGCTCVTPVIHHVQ
As to the kind of experiment: IL-17A/F HEK-Blue cell assay (SEAP reporter). It is filed as cell-based. The settings on record: HEK-Blue IL-17A reporter cells, IL17A/F 5 ng/mL, 20 hours, SEAP read at A630; read-out: HEK-Blue IL17AF (IC50 for IL-17A/F inhibition).

Consider `O=C(N[C@H](c1cn2nc(CC3C[C@H](C(F)(F)F)CNC3=O)cnc2n1)C1CCC(F)(F)CC1)c1nonc1C1CC1` (stereo partly drawn) [Compound 16, 4-cyclopropyl-N—((S)-(4,4-difluorocyclohexyl)(2-(((5S)-2-oxo-5-(trifluoromethyl)piperidin-3-yl)methyl)imidazo[1,2-b][1,2,4]triazin-6-yl)methyl)-1,2,5-oxadiazole-3-carboxamide], for which the IC50 at IL-17A/A was 100 to 1000 nM; on IL-17A/F, greater than 1000 nM.

On to `CCn1nccc1C(=O)N[C@H](c1cn2nc(CC3C[C@@H](C(F)(F)F)CNC3=O)cnc2n1)C1CCC(F)(F)CC1` (stereo partly drawn) [Compound 24], for which the IC50 was 100 to 1000 nM at IL-17A/A and greater than 1000 nM at IL-17A/F.

As to `CCn1nccc1C(=O)N[C@H](c1cn2nc(C[C@@H]3C[C@@H](C(F)(F)F)CNC3=O)cnc2n1)[C@H]1CC[C@H](C)CC1` [Compound 25], the IC50 at IL-17A/A was 100 to 1000 nM; at IL-17A/F, greater than 1000 nM.

Turning to `CCn1nccc1C(=O)N[C@H](c1cn2nc(C[C@H]3C[C@@H](C(F)(F)F)CNC3=O)cnc2n1)[C@H]1CC[C@H](C)CC1` [Compound 26], the IC50 was less than 100 nM at IL-17A/A and greater than 1000 nM on IL-17A/F.

In the case of `CCn1nccc1C(=O)N[C@H](c1cn2nc(C[C@H]3C[C@@H](C(F)(F)F)CNC3=O)cnc2n1)C1CCC(F)(F)CC1` [Compound 27], the IC50 was less than 100 nM on IL-17A/A and greater than 1000 nM at IL-17A/F.

With `CCn1nccc1C(=O)N[C@H](c1cn2nc(C[C@@H]3C[C@@H](C(F)(F)F)CNC3=O)cnc2n1)C1CCC(F)(F)CC1` [Compound 28], the IC50 at IL-17A/A was 100 to 1000 nM; on IL-17A/F it was greater than 1000 nM.

In the case of `CCn1nccc1C(=O)N[C@H](c1cn2nc(C[C@H]3C[C@@H](C(F)(F)F)CNC3=O)cnc2n1)C(C1CC1)C1CC1` [Compound 29, N—((S)-2,2-dicyclopropyl-1-(2-(((3R,5R)-2-oxo-5-(trifluoromethyl)piperidin-3-yl)methyl)imidazo[1,2-b][1,2,4]triazin-6-yl)ethyl)-1-ethyl-1H-pyrazole-5-carboxamide], the IC50 at IL-17A/A was less than 100 nM; at IL-17A/F, greater than 1000 nM.

`CCn1nccc1C(=O)N[C@H](c1cn2nc(C[C@H]3C[C@@H](C(F)(F)F)CNC3=O)cnc2n1)[C@H]1CCCC(F)(F)C1` [Compound 30, N—((S)—((S)-3,3-difluorocyclohexyl)(2-(((3R,5R)-2-oxo-5-(trifluoromethyl)piperidin-3-yl)methyl)imidazo[1,2-b][1,2,4]triazin-6-yl)methyl)-1-ethyl-1H-pyrazole-5-carboxamide]: the IC50 at IL-17A/A was less than 100 nM; at IL-17A/F, greater than 1000 nM.

On to `CC(C)c1nocc1C(=O)N[C@H](c1cn2nc(C[C@H]3C[C@@H](C(F)(F)F)CNC3=O)cnc2n1)C1CCC(F)(F)CC1` [Compound 32], for which the IC50 at IL-17A/A was 100 to 1000 nM; on IL-17A/F it was greater than 1000 nM.

Regarding `CC(C)n1nccc1C(=O)N[C@H](c1cn2nc(C[C@H]3C[C@@H](C(F)(F)F)CNC3=O)cnc2n1)C1CCC(F)(F)CC1` [Compound 34], the IC50 is less than 100 nM at IL-17A/A and greater than 1000 nM on IL-17A/F.

As to `CCc1nonc1C(=O)N[C@H](c1cn2nc(C[C@H]3C[C@@H](C(F)(F)F)CNC3=O)cnc2n1)C1CCC(F)(F)CC1` [Compound 35], the IC50 on IL-17A/A is 100 to 1000 nM; at IL-17A/F, greater than 1000 nM.

In the case of `Cn1nccc1C(=O)N[C@H](c1cn2nc(C[C@H]3C[C@@H](C(F)(F)F)CNC3=O)cnc2n1)C1CCC(F)(F)CC1` [Compound 36], the IC50 at IL-17A/A is 100 to 1000 nM; on IL-17A/F, greater than 1000 nM.

For `CC(C)c1nonc1C(=O)N[C@H](c1cn2nc(C[C@H]3C[C@@H](C(F)(F)F)CNC3=O)cnc2n1)C1CCC(F)(F)CC1` [Compound 37], the values for the IC50 at IL-17A/A and at IL-17A/F were less than 100 nM and greater than 1000 nM, respectively.

`O=C(N[C@H](c1cn2nc(C[C@H]3C[C@@H](C(F)(F)F)CNC3=O)cnc2n1)C1CCC(F)(F)CC1)c1conc1C1CC1` [Compound 38]: the IC50 at IL-17A/A is 100 to 1000 nM; at IL-17A/F, greater than 1000 nM.

Regarding `O=C(N[C@H](c1cn2nc(C[C@H]3C[C@@H](C(F)(F)F)CNC3=O)cnc2n1)C(C1CC1)C1CC1)c1nonc1C1CC1` [Compound 39, 4-cyclopropyl-N—((S)-2,2-dicyclopropyl-1-(2-(((3R,5R)-2-oxo-5-(trifluoromethyl)piperidin-3-yl)methyl)imidazo[1,2-b][1,2,4]triazin-6-yl)ethyl)-1,2,5-oxadiazole-3-carboxamide], the figures for the IC50 at IL-17A/A and on IL-17A/F were less than 100 nM and greater than 1000 nM, respectively.

With `O=C(N[C@H](c1cn2nc(C[C@H]3C[C@@H](C(F)(F)F)CNC3=O)cnc2n1)C1CCC(F)(F)CC1)c1conc1CCF` [Compound 40], the figures for the IC50 at IL-17A/A and at IL-17A/F were 100 to 1000 nM and greater than 1000 nM, respectively.

As to `CC(C)n1nccc1C(=O)N[C@H](c1cn2nc(C[C@H]3C[C@H](C(F)(F)F)CNC3=O)cnc2n1)C1CCC(F)(F)CC1` [Compound 41], the IC50 at IL-17A/A is 100 to 1000 nM; at IL-17A/F, greater than 1000 nM.

In the case of `O=C(N[C@H](c1cn2nc(C[C@H]3C[C@@H](C(F)(F)F)CNC3=O)cnc2n1)C1CCC(F)(F)CC1)c1conc1C(F)(F)F` [Compound 42], the IC50 is 100 to 1000 nM at IL-17A/A and greater than 1000 nM on IL-17A/F.

For `O=C(N[C@H](c1cn2nc(C[C@H]3C[C@@H](C(F)(F)F)CNC3=O)cnc2n1)C1CCC(F)(F)CC1)c1nonc1C1CC1` [Compound 43], the IC50 at IL-17A/A is less than 100 nM; at IL-17A/F it was greater than 1000 nM.

Take `CCn1nccc1C(=O)N[C@H](c1cn2nc(C[C@H]3C[C@@H](C(F)(F)F)CNC3=O)c(N3CCOCC3)nc2n1)C1CCC(F)(F)CC1` [Compound 46]: the IC50 on IL-17A/A is less than 100 nM; at IL-17A/F it was 100 to 1000 nM.

Turning to `CCn1nccc1C(=O)N[C@H](c1cn2nc(CC3C[C@@H](C(F)(F)F)CNC3=O)c(N3CCOCC3)nc2n1)C1CCC(F)(F)CC1` (stereo partly drawn) [Compound 47], the IC50 at IL-17A/A was less than 100 nM; on IL-17A/F it was greater than 1000 nM.

For the compound `O=C(N[C@H](c1cn2nc(C[C@H]3C[C@H](C(F)(F)F)CNC3=O)cnc2n1)C1CCC(F)(F)CC1)c1nonc1C1CC1` [Compound 53], the IC50 at IL-17A/A is 100 to 1000 nM; on IL-17A/F it was greater than 1000 nM.

In the case of `O=C(N[C@H](c1cn2nc(CC3C[C@@H](C(F)(F)F)CNC3=O)c(N3CCOCC3)nc2n1)C1CCC(F)(F)CC1)c1nonc1C1CC1` (stereo partly drawn) [Compound 57], the IC50 is less than 100 nM at IL-17A/A and greater than 1000 nM at IL-17A/F.

With `CCn1nccc1C(=O)N[C@H](c1cn2nc(CC3C[C@@H](C(F)(F)F)CNC3=O)c(N3CCOCC3)nc2n1)[C@H]1CC[C@H](C)CC1` (stereo partly drawn) [Compound 58], the IC50 at IL-17A/A is less than 100 nM; on IL-17A/F it was 100 to 1000 nM.

For `CCn1nccc1C(=O)N[C@H](c1cn2nc(CC3C[C@@H](C(F)(F)F)CNC3=O)c(N3CCOCC3)nc2n1)[C@H]1CC[C@H](C)CC1` (stereo partly drawn) [Compound 59], the IC50 is less than 100 nM at IL-17A/A and greater than 1000 nM on IL-17A/F.

For `CC[C@@H](c1ccc(F)cc1)[C@H](NC(=O)c1ccnn1CC)c1cn2nc(C[C@H]3C[C@@H](C(F)(F)F)CNC3=O)cnc2n1` [Compound 60, 1-ethyl-N-((1S,2S)-2-(4-fluorophenyl)-1-(2-(((3R,5R)-2-oxo-5-(trifluoromethyl)piperidin-3-yl)methyl)imidazo[1,2-b][1,2,4]triazin-6-yl)butyl)-1H-pyrazole-5-carboxamide], the IC50 at IL-17A/A is less than 100 nM; on IL-17A/F, greater than 1000 nM.

On to `CCn1nccc1C(=O)N[C@H](c1cn2nc(C[C@H]3C[C@@H](C(F)(F)F)CNC3=O)c(C3CCOCC3)nc2n1)[C@H]1CCCC(F)(F)C1` [Compound 66, N—((S)—((S)-3,3-difluorocyclohexyl)(2-(((3R,5R)-2-oxo-5-(trifluoromethyl)piperidin-3-yl)methyl)-3-(tetrahydro-2H-pyran-4-yl)imidazo[1,2-b][1,2,4]triazin-6-yl)methyl)-1-ethyl-11H-pyrazole-5-carboxamide], for which the IC50 at IL-17A/A and on IL-17A/F was less than 100 nM throughout.

In the case of `CCn1nccc1C(=O)N[C@H](c1cn2nc(C[C@H]3C[C@@H](C(F)(F)F)CNC3=O)c(C3CCOCC3)nc2n1)[C@@H]1CCCC(F)(F)C1` [Compound 67, N—((S)—((R)-3,3-difluorocyclohexyl)(2-(((3R,5R)-2-oxo-5-(trifluoromethyl)piperidin-3-yl)methyl)-3-(tetrahydro-2H-pyran-4-yl)imidazo[1,2-b][1,2,4]triazin-6-yl)methyl)-1-ethyl-1H-pyrazole-5-carboxamide], the IC50 at IL-17A/A and on IL-17A/F was less than 100 nM each time.

On to `CCn1nccc1C(=O)N[C@H](c1cn2nc(C[C@H]3C[C@@H](C(F)(F)F)CNC3=O)c(C3CCOCC3)nc2n1)[C@H]1CC[C@H](C)CC1` [Compound 78, 1-ethyl-N-((1S)-((1r,4S)-4-methylcyclohexyl)(2-(((3R,5R)-2-oxo-5-(trifluoromethyl)piperidin-3-yl)methyl)-3-(tetrahydro-2H-pyran-4-yl)imidazo[1,2-b][1,2,4]triazin-6-yl)methyl)-1H-pyrazole-5-carboxamide], for which the IC50 at IL-17A/A and on IL-17A/F was less than 100 nM in each case.

Turning to `CCn1nccc1C(=O)N[C@H](c1cn2nc(C[C@H]3C[C@@H](C(F)(F)F)CNC3=O)c(C(C)C)nc2n1)C1CCC(F)(F)CC1` [Compound 87, N-((1S)-(4,4-difluorocyclohexyl)(3-isopropyl-2-(((3R,5R)-2-oxo-5-(trifluoromethyl)piperidin-3-yl)methyl)imidazo[1,2-b][1,2,4]triazin-6-yl)methyl)-1-ethyl-1H-pyrazole-5-carboxamide], the figures for the IC50 on IL-17A/A and on IL-17A/F were less than 100 nM and 100 to 1000 nM, respectively.
